The text below walks through data of patent US20250115581A1, “SUBSTITUTED PIPERIDINES AS CK1A DEGRADERS” (Monte Rosa Therapeutics, Inc., priority 2022, published 2025).

A value given as a limit tells only on which side of the number the result lay.

Assay [1] concerns the target CRBN/DDB1 (Homo sapiens, UniProt Q96SW2). Kind of assay: HTRF binding assay (displacement of Cy5-thalidomide probe from CRBN/DDB1). Particulars: CRBN/DDB1 2.5 nM, Cy5-Thalidomide 100 nM, 30 min; geometric mean; read-out: HTRF_Thali_Disp_DR_geo_IC50. An excerpt:
Binding of test compounds to CRBN/DDB1 was monitored in an HTRF assay using 1-[5-({2-[2-(2-{[2-(2,6-dioxopiperidin-3-yl)-1,3-dioxo-2,3-dihydro-1H-isoindol-4-yl]oxy}acetamido)ethoxy]ethyl}carbamoyl)pentyl]-3,3-dimethyl-2-[(1E,3E)-5-[(2E)-1,3,3-trimethyl-5-sulfo-2,3-dihydro-1H-indol-2-ylidene]penta-1,3-dien-1-yl]-3H-indol-1-ium-5-sulfonate as a fluorescent probe. In this assay, compounds displace the fluorescently labeled thalidomide-based probe bound to CRBN and fluorescence is monitored with increasing compound concentration. Assays were conducted in Greiner white 384 well HiBase plates (Cat. No 784075-25) in 10 μL total volume. A one pot detection solution of CRBN/DDB1 (2.5 nM), anti-His Terbium Cryptate Gold (1×, PerkinElmer Cat. #: 61HI2TLB), and Cy5-Thalidomide (100 nM, Tenova Cat.: T52461) was prepared in 20 mM HEPES, 20 mM NaCl, 0.2 mM TCEP, 0.2 mM EDTA, and 0.005% Tween20 was dispensed to each assay plate. Test compounds were stored in dry, ambient temperatures at 10 mM. A 10-point, 1:3 dilution series was prepared from 10 mM stock concentrations in Echo-compatible LDV plates. 10 nL of each compound dilution series was dispensed into assays wells using an Echo 650 (Labcyte inc. USA). 10 nL of 10 mM lenalidomide (Selleckchem Cat no. S1029) was transferred into the active-control wells for the assay and 10 nL of DMSO was transferred into the negative control wells. The assay was then allowed to incubate for 30 min at ambient temperature after transferring the test compounds. Plate measurements were taken on a Pherastar FSX (BMG Labtech, Germany) using the HTRF Red filter (Ex. 337 nm, em1: 620 nm, em2: 665 nm) (Flashes: 50, Integration time: 60-400 μs, Z-height: 10 mm, Ratio-multiplier: 10,000). Analysis, HTRF ratio and IC50 values were derived using KNIME analytics (KNIME Zurich) transformation and fitting within Collaborative Drug Discovery (Collaborative Drug Discovery USA) using a 4-parameter logistic fit. HTRF ratio calculation was performed using the following formula: […]
where em665 nm represents the measured emission at 665 nm upon excitation at 337 nm and em620 nm the measured emission at 620 nm upon excitation at 337 nm. The 4 parameter logistic fitting model was performed using the following formula: […]
where Y represents the HTRF ratio response (as defined previously), X the compound concentration in μM, Ymin the minimum response plateau, Ymax the maximum response plateau, IC50 the concentration of […] that gives a response half way between Ymin and Ymax and HillSlope the steepness of the family of curves. No fitting model constraints was applied on Ymin, or Ymax whilst IC50>0 and −0.5>HillSlope>−3 Cheng-Prusoff transformation
Ki values were derived from the geometric mean of the IC50 values using the Cheng-Prusoff transformation:
where [L] represents the concentration of fluorescent probe in […], Kd the affinity (binding constant) of the fluorescent probe in units of μM and IC50 the concentration of agonist that gives a response halfway between Ymin and Ymax (as described in 1.2.1)
Analysis and IC50 values were derived using KNIME analytics (KNIME, Zurich) transformation and fitting within Collaborative Drug Discovery (Collaborative Drug Discovery, USA) as described in 1.2.1. Ki values were derived from the geometric mean of the IC50 values using the Cheng-Prusoff transformation as described in 2.2.2. Data was visualized in GraphPad Prism 8.1.2 (GraphPad, USA) and reported as mean and standard deviation. Microsoft Office Excel 2012 (Redmond, WA) was used for calculation of mean and standard deviation.
IC50 data are reported in Table 3 for compounds in Table 1. In Table 3 below, According to the code, A represents a IC50 value of ≤0.1 μM, B represents a IC50 value >0.1 μM and ≤1 μM, C represents an IC50 value >1 μM.

Assay [2] deals with T1, CK1α (Homo sapiens, UniProt P48729+Q96SW2).
T1 construct: HEK293 clonal lines with CRISPR KI HiBiT tag on CSNK1A1; host or cells: HEK293 clonal line, CRISPR knock-in HiBiT at the CSNK1A1 locus, stably expressing LgBiT
T1 sequence (P48729 whole entry): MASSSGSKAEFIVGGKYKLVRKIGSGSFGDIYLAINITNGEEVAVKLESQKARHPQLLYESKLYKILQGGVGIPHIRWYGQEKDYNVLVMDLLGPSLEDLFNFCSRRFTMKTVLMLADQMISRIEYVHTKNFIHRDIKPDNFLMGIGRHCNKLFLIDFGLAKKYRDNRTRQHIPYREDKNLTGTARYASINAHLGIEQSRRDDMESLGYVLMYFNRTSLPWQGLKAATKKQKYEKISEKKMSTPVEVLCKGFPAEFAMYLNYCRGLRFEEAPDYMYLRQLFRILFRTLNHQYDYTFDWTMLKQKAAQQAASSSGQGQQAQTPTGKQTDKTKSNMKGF
T1 sequence (Q96SW2 whole entry): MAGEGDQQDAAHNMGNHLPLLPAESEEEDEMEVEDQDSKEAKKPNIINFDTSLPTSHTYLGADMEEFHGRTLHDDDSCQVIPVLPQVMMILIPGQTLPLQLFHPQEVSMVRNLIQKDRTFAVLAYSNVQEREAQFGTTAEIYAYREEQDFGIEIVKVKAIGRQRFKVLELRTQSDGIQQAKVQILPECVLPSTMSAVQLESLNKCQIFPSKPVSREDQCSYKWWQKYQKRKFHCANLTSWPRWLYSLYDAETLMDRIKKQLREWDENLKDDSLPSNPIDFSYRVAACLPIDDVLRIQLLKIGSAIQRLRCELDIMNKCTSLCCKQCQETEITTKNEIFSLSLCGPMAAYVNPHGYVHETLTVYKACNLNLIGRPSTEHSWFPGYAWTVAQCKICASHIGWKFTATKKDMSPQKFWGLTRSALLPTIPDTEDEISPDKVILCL
T1 sequence (Q16531 whole entry partner): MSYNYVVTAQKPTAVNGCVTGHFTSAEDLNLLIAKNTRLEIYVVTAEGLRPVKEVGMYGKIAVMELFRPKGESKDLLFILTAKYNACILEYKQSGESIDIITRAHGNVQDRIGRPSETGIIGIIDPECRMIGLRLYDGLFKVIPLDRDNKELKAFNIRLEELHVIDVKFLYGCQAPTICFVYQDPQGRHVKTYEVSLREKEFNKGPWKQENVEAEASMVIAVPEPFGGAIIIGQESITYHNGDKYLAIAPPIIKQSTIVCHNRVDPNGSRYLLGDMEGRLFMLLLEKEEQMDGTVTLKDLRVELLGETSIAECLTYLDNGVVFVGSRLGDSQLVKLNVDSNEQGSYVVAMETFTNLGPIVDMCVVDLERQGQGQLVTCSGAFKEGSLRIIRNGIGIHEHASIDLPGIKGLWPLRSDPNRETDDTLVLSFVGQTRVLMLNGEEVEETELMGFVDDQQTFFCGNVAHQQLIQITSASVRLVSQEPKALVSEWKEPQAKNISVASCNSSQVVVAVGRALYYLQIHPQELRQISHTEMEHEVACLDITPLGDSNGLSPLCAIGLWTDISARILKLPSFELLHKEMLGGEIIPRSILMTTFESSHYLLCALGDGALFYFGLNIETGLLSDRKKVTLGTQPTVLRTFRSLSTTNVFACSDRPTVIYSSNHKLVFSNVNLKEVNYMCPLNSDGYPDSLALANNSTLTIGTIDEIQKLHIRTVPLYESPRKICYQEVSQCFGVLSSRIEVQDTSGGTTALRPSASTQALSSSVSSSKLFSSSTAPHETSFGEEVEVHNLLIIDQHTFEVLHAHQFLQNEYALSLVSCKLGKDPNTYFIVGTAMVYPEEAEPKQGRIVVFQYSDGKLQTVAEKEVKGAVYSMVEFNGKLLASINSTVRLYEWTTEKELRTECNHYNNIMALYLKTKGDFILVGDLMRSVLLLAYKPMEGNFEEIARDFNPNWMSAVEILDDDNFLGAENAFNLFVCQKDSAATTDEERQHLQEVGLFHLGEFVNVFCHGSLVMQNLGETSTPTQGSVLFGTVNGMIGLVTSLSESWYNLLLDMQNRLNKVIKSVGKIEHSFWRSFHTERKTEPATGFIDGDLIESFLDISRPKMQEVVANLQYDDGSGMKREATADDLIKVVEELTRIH
The assay is described as follows: CK1α NanoBit Assay (HiBiT-tagged CSNK1A1 in HEK293 cells, luminescence). Type of assay: cell-based. Particulars: 24 h. As to the method: HEK293 clonal lines with CRISPR KI HiBiT tag on CSNK1A1 and stably expressing LgBiT protein were obtained from Promega (Madison, WI). Cells were plated at 5000 cells per well using Multiflo (BioTek) in 384-well white solid bottom plates (Corning, 3570BC) in 25 μl volume in DMEM media (DMEM, high glucose, HEPES, no phenol red (ThermoFisher Scientific, 21063029)) containing 10% FBS (Corning, 35-075-CV), 1% Penicillin/Streptomycin ((ThermoFisher Scientific, 15140-122), and 0.2% Endurazine (Nano-Glo Endurazine Live Cell Substrate (Promega, N2571)). Cells were incubated for 16 hours at 37° C., 5% CO2. Depending on experiment 25 or 75 nL of a compound at 10 mM were added into the plate using an Echo® 650 liquid handler (Labcyte) to achieve final concentration of 10 or 30 μM in wells. Cells were incubated at 37° C., 5% CO2 for 24 hours and then signal was read on a Pherastar FSX using “LUM plus” optic module.
Data analysis was performed in Scinamic (Scinamic, Cambridge, MA). Luminescence response (R) was calculated by the formula: response=100*(S−N)/(P−N) where S is the signal of the well, N and P the mean negative and positive control values respectively of the same plate. The luminescence response was then fitted in Scinamic using a 3-parameter agonist logistic fit (hillslope=1, EC50>0, top/bottom unconstrained).
DC50 data are reported in Table 2 for compounds in Table 1. In Table 2 below, According to the code, A represents a DC50 value of ≤0.1 μM, B represents a DC50 value >0.1 μM and ≤1 μM, C represents an DC50 value >1 μM.
For orientation: With HiBiT, luminescence reflects the tagged protein that the partner subunit can reach.

Chain of CRBN/DDB1 (Q96SW2 whole entry): as the sequence (Q96SW2 whole entry) above
Chain of CRBN/DDB1 (Q16531 whole entry partner): as the sequence (Q16531 whole entry partner) above

As to `COc1ccc(-n2ccn(-c3ccc4c(c3)CN(C3CCC(=O)NC3=O)C4=O)c2=O)cc1` (stereo not shown) [Compound 102, 3-(5-(3-(4-methoxyphenyl)-2-oxo-2,3-dihydro-1H-imidazol-1-yl)-1-oxoisoindolin-2-yl) piperidine-2,6-dione], the IC50 in assay [1] was 100 to 1000 nM. In addition, the DC50 in assay [2] is > 1 µM.
On to `Cc1cc(N2CCN(c3ccc4c(c3)CN(C3CCC(=O)NC3=O)C4=O)C2=O)ccn1` (stereo not shown) [Compound 103, 3-(5-(3-(2-methylpyridin-4-yl)-2-oxoimidazolidin-1-yl)-1-oxoisoindolin-2-yl)piperidine-2,6-dione], for which the DC50 in assay [2] is > 1 µM.
For `O=C1CCC(N2Cc3cc(N4CCN(c5ccccn5)C4=O)ccc3C2=O)C(=O)N1` (stereo not shown) [Compound 105, 3-(1-oxo-5-(2-oxo-3-(pyridin-2-yl)imidazolidin-1-yl)isoindolin-2-yl)piperidine-2,6-dione], the IC50 in assay [1] was > 1000 nM. Besides, the DC50 in assay [2] was ≤ 0.1 µM.
Taken in the same sequence, the figures for `O=C1CCC(N2Cc3cc(N4C[C@@H](C(F)(F)F)N(c5ccccc5)C4=O)ccc3C2=O)C(=O)N1` (stereo partly drawn) [Compound 106, 3-(1-oxo-5-((S)-2-oxo-3-phenyl-4-(trifluoromethyl)imidazolidin-1-yl)isoindolin-2-yl)piperidine-2,6-dione] were 100 to 1000 nM and 0.1 to 1 µM.
With `O=C1CCC(N2Cc3cc(N4C[C@H](C(F)(F)F)N(c5ccccc5)C4=O)ccc3C2=O)C(=O)N1` (stereo partly drawn) [Compound 108, 3-(1-oxo-5-((R)-2-oxo-3-phenyl-4-(trifluoromethyl)imidazolidin-1-yl)isoindolin-2-yl)piperidine-2,6-dione], the IC50 in assay [1] was 100 to 1000 nM. The DC50 in assay [2] was > 1 µM.
On to `C[C@H]1CN(c2ccc3c(c2)CN(C2CCC(=O)NC2=O)C3=O)C(=O)N1c1ccccc1` (stereo partly drawn) [Compound 109, 3-(5-((S)-4-methyl-2-oxo-3-phenylimidazolidin-1-yl)-1-oxoisoindolin-2-yl) piperidine-2,6-dione], for which the IC50 in assay [1] lay within 100 to 1000 nM. Further, in assay [2], the DC50 is ≤ 0.1 µM.
Taken in the same sequence, the figures for `Cc1cccc(N2CCN(c3ccc4c(c3)CN(C3CCC(=O)NC3=O)C4=O)C2=O)c1` (stereo not shown) [Compound 110, 3-(1-oxo-5-(2-oxo-3-(m-tolyl)imidazolidin-1-yl)isoindolin-2-yl)piperidine-2,6-dione] were 100 to 1000 nM and ≤ 0.1 µM.
Take `O=C1CCC(N2Cc3cc(N4CCN(c5ccc(C(F)(F)F)cc5)C4=O)ccc3C2=O)C(=O)N1` (stereo not shown) [Compound 112, 3-(1-oxo-5-(2-oxo-3-(4-(trifluoromethyl)phenyl)imidazolidin-1-yl)isoindolin-2-yl)piperidine-2,6-dione]: the IC50 in assay [1] was 100 to 1000 nM. The DC50 in assay [2] was ≤ 0.1 µM.
Taken in the same sequence, the figures for `CC1C(C)N(c2ccc3c(c2)CN(C2CCC(=O)NC2=O)C3=O)C(=O)N1c1ccccc1` (stereo not shown) [Compound 113, 3-(5-(4,5-dimethyl-2-oxo-3-phenylimidazolidin-1-yl)-1-oxoisoindolin-2-yl)piperidine-2,6-dione] were 100 to 1000 nM and > 1 µM.
`O=C1CCC(N2Cc3cc(N4CCN(c5ccc(Cl)cc5)C4=O)ccc3C2=O)C(=O)N1` (stereo not shown) [Compound 114]: in assay [1], the IC50 was in the range of 100 to 1000 nM. The DC50 in assay [2] is ≤ 0.1 µM.
Turning to `N#Cc1ccc(N2CCN(c3ccc4c(c3)CN(C3CCC(=O)NC3=O)C4=O)C2=O)cc1` (stereo not shown) [Compound 115], the IC50 in assay [1] is 100 to 1000 nM. In assay [2], this compound came in with a DC50 of 0.1 to 1 µM.
For the compound `O=C1CCC(N2Cc3cc(N4CCN(c5cccc(C(F)(F)F)c5)C4=O)ccc3C2=O)C(=O)N1` (stereo not shown) [Compound 116, 3-(1-oxo-5-(2-oxo-3-(3-(trifluoromethyl)phenyl)imidazolidin-1-yl)isoindolin-2-yl)piperidine-2,6-dione], in assay [1], the IC50 lay within 100 to 1000 nM. Besides, the DC50 in assay [2] was ≤ 0.1 µM.
Turning to `CC1CN(c2ccccc2)C(=O)N1c1ccc2c(c1)CN(C1CCC(=O)NC1=O)C2=O` (stereo not shown) [Compound 117, 3-(5-(5-methyl-2-oxo-3-phenylimidazolidin-1-yl)-1-oxoisoindolin-2-yl)piperidine-2,6-dione], in assay [1], the IC50 lay in the range of 100 to 1000 nM. Further, in assay [2], the DC50 lay within 0.1 to 1 µM.
For `O=C1CCC(N2Cc3cc(N4CCN(c5cccc(Cl)c5)C4=O)ccc3C2=O)C(=O)N1` (stereo not shown) [Compound 118, 3-(5-(3-(3-chlorophenyl)-2-oxoimidazolidin-1-yl)-1-oxoisoindolin-2-yl)piperidine-2,6-dione], in assay [1], the IC50 was 100 to 1000 nM. Further, the DC50 in assay [2] is ≤ 0.1 µM.
`CC(C)c1cccc(N2CCN(c3ccc4c(c3)CN(C3CCC(=O)NC3=O)C4=O)C2=O)c1` (stereo not shown) [Compound 119, 3-(5-(3-(3-isopropylphenyl)-2-oxoimidazolidin-1-yl)-1-oxoisoindolin-2-yl)piperidine-2,6-dione]: in assay [1], the IC50 lay within 100 to 1000 nM. Also, the DC50 in assay [2] was ≤ 0.1 µM.
Taken in the same sequence, the figures for `CC(C)c1ccc(N2CCN(c3ccc4c(c3)CN(C3CCC(=O)NC3=O)C4=O)C2=O)cc1` (stereo not shown) [Compound 120, 3-(5-(3-(4-isopropylphenyl)-2-oxoimidazolidin-1-yl)-1-oxoisoindolin-2-yl)piperidine-2,6-dione] were 100 to 1000 nM and ≤ 0.1 µM.
In the case of `Cc1ccc(N2CCN(c3ccc4c(c3)CN(C3CCC(=O)NC3=O)C4=O)C2=O)nc1` (stereo not shown) [Compound 141, 3-(5-(3-(5-methylpyridin-2-yl)-2-oxoimidazolidin-1-yl)-1-oxoisoindolin-2-yl)piperidine-2,6-dione], the DC50 in assay [2] is ≤ 0.1 µM.
In the case of `O=C1CCC(N2Cc3cc(N4CCN(c5ccc(C6(C(F)(F)F)CC6)cc5)C4=O)ccc3C2=O)C(=O)N1` (stereo not shown) [Compound 147, 3-(1-oxo-5-(2-oxo-3-(4-(1-(trifluoromethyl)cyclopropyl)phenyl)imidazolidin-1-yl)isoindolin-2-yl)piperidine-2,6-dione], in assay [2], the DC50 is ≤ 0.1 µM.
Take `N#Cc1cccc(N2CCN(c3ccc4c(c3)CN(C3CCC(=O)NC3=O)C4=O)C2=O)c1` (stereo not shown) [Compound 148, 3-(3-(2-(2,6-dioxopiperidin-3-yl)-1-oxoisoindolin-5-yl)-2-oxoimidazolidin-1-yl)benzonitrile]: in assay [2], the DC50 was ≤ 0.1 µM.
